For orientation: Ki means a measure of affinity in units of concentration, obtained from inhibition or displacement.

For assay [1], the target named is human α2β3γ2 GABAARs (benzodiazepine site) (Homo sapiens (Human), UniProt P18507+P47869). Kind of assay: In vitro radioligand binding assay ([3H]Ro15-1788 displacement), α2-GABAAR Ki. In a few lines: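 Ki derived via Cheng-Prusoff from IC50 for displacement of 4 nM [3H]Ro15-1788 (Kd from saturation binding), with 1-3 μM TP003 defining nonspecific binding. Incubation lasted 1 h at 4° C on membranes of induced L(tk−) cells stably transfected with the human subunits; detection by filtration and scintillation counting.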

The target in assay [2] is human α3β3γ2 GABAARs (benzodiazepine site) (Homo sapiens (Human), UniProt P18507+P34903). Kind of assay: In vitro radioligand binding assay ([3H]Ro15-1788 displacement), α3-GABAAR Ki. The note with it: L(tk-) cell membranes, 4 nM [3H]Ro15-1788. The procedure: The affinity (Ki) of compounds for the benzodiazepine site of human recombinant GABAARs was measured by their ability to inhibit the binding of the selective benzodiazepine antagonist [^3H]Ro15-1788 ([^3H] flumazenil).
Mouse L(tk^−) cells stably expressing human α1β3γ2, α2β3γ2, α3β3γ2, α5β3γ2 GABAARs were generated by transfection of the individual subunits in the dexamethasone-inducible expression vector pMSGneo in mouse L(tk^−) cells (Hadingham et al., 1993, Mol. Pharmacol. 43:970-975 and 1993, Mol. Pharmacol. 44:1211-1218).
L(tk^−) cells stably expressing human α1β3γ2, α2β3γ2, α3β3γ2, α5β3γ2 GABAARs were maintained in DMEM F12 medium supplemented with 10% Foetal Bovine Serum, 1% Penicillin/Streptomycin and 1 mg/mL Geneticin G418 in an incubator at 37° C. with a humidified atmosphere with 5% CO2. Dexamethasone was added to the culture medium to induce GABAAR expression.
L(tk−) cells were harvested and membranes were prepared for each receptor combination in either TE buffer (10 mM Tris·CI/0.1 mM EDTA, pH 7.5) or phosphate buffer (K2PO4 10 mM, pH 7.0) (Hadingham et al. (1992) Proc. Natl. Acad. Sci. USA; 89 (14): 6378-82). Protein concentration, receptor expression and the Kd of [^3H]Ro15-1788 were determined before Ki value of the compounds were evaluated. For Kd evaluation, saturation binding curves were obtained by incubating membrane with various concentrations of [^3H]Ro15-1788 (82.5 Ci/mM), with nonspecific binding measured in the presence of 1-3 μM TP003.
For Ki evaluation, cell membranes were incubated with 4 nM [^3H]Ro15-1788 along with a range of concentrations of test compound. Nonspecific binding was determined using 1-3 μM TP003. All incubations were performed for 1 hour at 4° C. in assay buffer. The total assay volume was 0.5 mL, containing 40 μg/well α1β3γ2, 30 μg/well α2β3γ2, 40 μg/well α3β3γ2 and 30 μg/well for α5β3γ2 of membrane protein. Incubations were terminated by filtration and washing with ice cold Tris-HCl buffer (50 mM, pH=7.4) over Whatman GF/B filters and the radioactivity of the filters was measured using liquid scintillation counting.
The % inhibition of [^3H]Ro15-1788 binding was plotted as a function of compound concentration and the IC50 calculated. From the IC50, the affinity (Ki) was calculated using the method of Cheng and Prusoff using the Kd values obtained for [^3H]Ro15-1788.

The subject of assay [3] is human α2β3γ2 GABAARs. Nature of the assay: In vitro electrophysiological recording assay (automated patch-clamp), α2-GABAAR relative efficacy. The class given is cell-based. The note with it: % efficacy normalised to diazepam; GABA EC10-20; concentration generally >= 100 times Ki. In a few lines: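 Relative efficacy is % enhancement of the leak-subtracted GABA EC10-20 peak current, divided by the separately measured diazepam value; compound generally tested at ≥100× Ki after ≥1 min pre-application. Recordings at room temperature, human receptors stably expressed in L(tk^−) (QPatch, −65 mV) or HEK293 (SyncroPatch, −80 mV) cells.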

In assay [4] the test system is human α3β3γ2 GABAARs. Kind of assay: In vitro electrophysiological recording assay (automated patch-clamp), α3-GABAAR relative efficacy. Type of assay: cell-based. The note with it: % efficacy normalised to diazepam; GABA EC10-20; concentration generally >= 100 times Ki. The protocol: The efficacy of modulators was evaluated using the automated patch-clamp platforms QPatch16 (Sophion, Copenhagen, Denmark) or SyncroPatch 384PE (Nanion, Germany).
For QPatch electrophysiology testing L(tk^−) cells stably expressing human α1β3γ2, α2β3γ2, α3β3γ2, α5β3γ2 GABAARs were used. HEK293 cells stably expressing human α1β3γ2L, α2β3γ2L, α3β3γ2L and α5β3γ2L GABAARs were used for the SyncroPatch 384PE experiments.
All experiments were carried out at room temperature (20-22° C.) using a standard whole cell procedure and physiological solutions. Gigaseals were formed upon execution of a combined suction/voltage protocol with subsequent increased suction leading to the whole-cell configuration.
The currents recorded were acquired at either 1 KHz or 2 KHz and filtered using a Bessel filter. Whole-cell currents were measured at a holding potential of-65 mV (QPatch) or −80 mV (SyncroPatch).
For QPatch experiments, the extracellular solution contained of: 145 mM NaCl, 4 mM KCl, 1 mM MgCl2, 2 mM CaCl2), 10 mM HEPES, 10 mM D-glucose (pH 7.4), and the intracellular solution consisted of: 96 mM KCl, 28 mM CsCl, 25 mM KOH, 4.3 mM CaCl2), 1.4 mM MgCl2, 10 mM EGTA, 10 mM HEPES, 3 mM MgATP (pH 7.2). The osmolarities of the extracellular and intracellular solutions were 305 and 295 mOsm respectively.
For SyncroPatch experiments, the extracellular recording solution contained: 140 mM NaCl, 4 mM KCl, 2 mM CaCl2), 1 mM MgCl2, 10 mM HEPES, 5 mM glucose (pH 7.4 with NaOH and osmolarity of c. 300-310 mOsm). The intracellular recording solution consisted of: 90 mM KCl, 50 mM KF, 1.5 mM MgCl2, 11.1 mM EGTA and 10 mM HEPES (pH 7.2 with KOH and osmolarity of c. 300 mOsm). 2 mM of NaATP was added to the intracellular solution on the day of testing.
The effects of modulators were evaluated in the presence of a submaximal GABA concentration, giving typically less than 30% activation of the response elicited by a saturating GABA concentration. To check and ensure baseline current stability before compound addition, two to five consecutive applications of GABA EC10-20 separated by wash steps were performed before compound addition. The test compound was applied 1 min at least prior to co-application with GABA EC10-20. Following a further wash step, a saturating concentration of GABA was applied at the end of each recording, allowing the accurate evaluation for each cell of the percentage baseline activation elicited by the submaximal GABA applied.
The compounds were first dissolved in DMSO as a 10 mM stock and then further diluted to the testing concentrations so that the final DMSO concentration in the extracellular recording solution was 0.1% (QPatch) or 0.2% (SyncroPatch).
The % efficacy of modulators was determined from the GABA elicited currents recorded in the presence and absence of the test compound, using the formula:
[((compound peak current−leak)−(GABA peak current-leak))/(GABA peak current−leak)]*100,
where ‘leak’ is the leak baseline current at the holding potential, ‘compound peak current’ is the current elicited by co-application of compound and GABA, and ‘GABA peak current’ is the current elicited by GABA alone at the last GABA application before compound addition. The results were presented as ‘relative efficacy’ for each compound generally at a concentration equal or higher than 100 times their determined Ki. The relative efficacy of a compound was calculated by normalising its % efficacy to the corresponding % efficacy of diazepam that was separately determined.
Background: The patch-clamp technique gives a direct electrical read-out from membranes.

Sequence of human α2β3γ2 GABAARs (benzodiazepine site) (P47869 29-451): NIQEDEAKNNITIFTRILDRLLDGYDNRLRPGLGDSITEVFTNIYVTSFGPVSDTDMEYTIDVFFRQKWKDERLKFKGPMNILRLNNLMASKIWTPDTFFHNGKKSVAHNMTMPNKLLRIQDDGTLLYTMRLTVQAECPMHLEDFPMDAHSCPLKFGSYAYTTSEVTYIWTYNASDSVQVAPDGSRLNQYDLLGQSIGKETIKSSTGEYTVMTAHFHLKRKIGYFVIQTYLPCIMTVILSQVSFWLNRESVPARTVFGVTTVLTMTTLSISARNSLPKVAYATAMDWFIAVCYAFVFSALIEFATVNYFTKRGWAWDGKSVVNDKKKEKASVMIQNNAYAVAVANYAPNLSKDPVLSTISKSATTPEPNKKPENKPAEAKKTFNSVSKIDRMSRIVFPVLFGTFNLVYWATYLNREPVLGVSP
Sequence of human α2β3γ2 GABAARs (benzodiazepine site) (P28472 26-473 partner): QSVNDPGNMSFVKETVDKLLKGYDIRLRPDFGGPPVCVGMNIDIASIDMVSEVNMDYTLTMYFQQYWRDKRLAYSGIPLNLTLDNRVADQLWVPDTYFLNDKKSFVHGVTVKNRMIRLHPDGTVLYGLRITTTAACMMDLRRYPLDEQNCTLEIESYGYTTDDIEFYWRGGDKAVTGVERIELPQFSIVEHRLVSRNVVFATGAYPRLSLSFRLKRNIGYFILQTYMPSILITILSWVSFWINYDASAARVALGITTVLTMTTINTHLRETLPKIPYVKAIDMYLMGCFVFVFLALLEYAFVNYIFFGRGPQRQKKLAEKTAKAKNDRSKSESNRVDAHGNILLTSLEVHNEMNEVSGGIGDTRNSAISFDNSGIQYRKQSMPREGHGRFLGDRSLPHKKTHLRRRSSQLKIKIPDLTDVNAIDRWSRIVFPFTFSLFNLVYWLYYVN
Sequence of human α2β3γ2 GABAARs (benzodiazepine site) (P18507 40-475): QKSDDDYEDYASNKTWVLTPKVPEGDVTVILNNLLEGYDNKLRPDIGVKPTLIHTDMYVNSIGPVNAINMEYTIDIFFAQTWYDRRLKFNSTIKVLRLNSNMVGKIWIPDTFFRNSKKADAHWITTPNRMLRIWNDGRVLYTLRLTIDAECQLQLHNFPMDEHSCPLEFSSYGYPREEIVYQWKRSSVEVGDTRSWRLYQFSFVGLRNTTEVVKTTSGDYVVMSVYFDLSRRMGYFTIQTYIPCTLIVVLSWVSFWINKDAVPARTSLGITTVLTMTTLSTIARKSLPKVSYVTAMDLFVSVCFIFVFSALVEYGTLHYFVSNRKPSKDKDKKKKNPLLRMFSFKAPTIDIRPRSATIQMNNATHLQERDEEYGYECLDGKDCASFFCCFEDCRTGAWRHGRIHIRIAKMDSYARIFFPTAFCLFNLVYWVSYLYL

Take `[2H]C([2H])([2H])C([2H])([2H])C([2H])([2H])NC(=O)c1c(N)c2cccc(-c3cnccc3OC)c2[nH]c1=O` [Example 62, 4-Amino-8-(4-methoxypyridin-3-yl)-2-oxo-N-(propyl-d7)-1,2-dihydroquinoline-3-carboxamide]: the figures for the Ki in assay [1] and in assay [2] were 6.85 nM and 5.41 nM, respectively. Moreover, in assay [3], the “α2-GABAAR Relative Efficacy (vs. Diazepam)” value (“α2-GABAAR Relative Efficacy” for short) is 0.28. Moreover, the “α3-GABAAR Relative Efficacy (vs. Diazepam)” value (from here on “α3-GABAAR Relative Efficacy”) in assay [4] is reported as 0.44.
In the same order, the values of `CCCNC(=O)c1c(N)c2cccc(-c3cccc(OCc4cccnc4)n3)c2[nH]c1=O` [Example 111, 4-Amino-2-oxo-N-propyl-8-(6-(pyridin-3-ylmethoxy)pyridin-2-yl)-1,2-dihydroquinoline-3-carboxamide] are 0.23 nM, 0.41 nM, 0.27 and 0.47.
For `CCCNC(=O)c1c(N)c2cccc(-c3cc(CN4CCC5(CCN(C)CC5)C4)ccc3F)c2[nH]c1=O` [Example 143, 4-Amino-8-(2-fluoro-5-((8-methyl-2,8-diazaspiro[4.5]decan-2-yl)methyl)phenyl)-2-oxo-N-propyl-1,2-dihydroquinoline-3-carboxamide], the Ki is 1.8 nM in assay [1] and 10.1 nM in assay [2]. In addition, the “α2-GABAAR Relative Efficacy” value in assay [3] is reported as 0.32. In addition, in assay [4], the “α3-GABAAR Relative Efficacy” value is on record as 0.11.
In the same order, the values of `CCCNC(=O)c1c(N)c2cccc(-c3nc(CO)ccc3F)c2[nH]c1=O` [Example 11, 4-Amino-8-[3-fluoro-6-(hydroxymethyl)-2-pyridyl]-2-oxo-N-propyl-1H-quinoline-3-carboxamide] are 2.13 nM, 4.38 nM, 0.32 and 0.24.
The corresponding values for `CCCNC(=O)c1c(N)c2cccc(-c3nc(C)ccc3F)c2[nH]c1=O` [Example 7, 4-Amino-8-(3-fluoro-6-methyl-2-pyridyl)-2-oxo-N-propyl-1H-quinoline-3-carboxamide] are 0.59 nM, 1.17 nM, 0.16 and 0.43.
The corresponding values for `CCCNC(=O)c1c(N)c2cccc(-c3cc(OCc4cccc(C#N)n4)ccc3F)c2[nH]c1=O` [Example 91, 4-Amino-8-(5-((6-cyanopyridin-2-yl)methoxy)-2-fluorophenyl)-2-oxo-N-propyl-1,2-dihydroquinoline-3-carboxamide] are 0.46 nM, 1.3 nM, 0.18 and 0.29.
With `CCCNC(=O)c1c(N)c2cccc(-c3cc(CN4CCC5(CCN(C)C5)C4)ccc3F)c2[nH]c1=O` (stereo not shown) [Example 142, 4-Amino-8-(2-fluoro-5-((7-methyl-2,7-diazaspiro[4.4]nonan-2-yl)methyl)phenyl)-2-oxo-N-propyl-1,2-dihydroquinoline-3-carboxamide], the Ki is 3.6 nM in assay [1] and 6.35 nM in assay [2]. For the same molecule, in assay [3], the “α2-GABAAR Relative Efficacy” value came to 0.24. The “α3-GABAAR Relative Efficacy” value in assay [4] is 0.27.
On to `CCCNC(=O)c1c(N)c2cccc(-c3nc(CN4CCN(C)CC4)ccc3F)c2[nH]c1=O` [Example 138, 4-Amino-8-(3-fluoro-6-((4-methylpiperazin-1-yl)methyl)pyridin-2-yl)-2-oxo-N-propyl-1,2-dihydroquinoline-3-carboxamide], for which the Ki in assay [1] was 1.87 nM; in assay [2], 4.99 nM. Besides, in assay [3], the “α2-GABAAR Relative Efficacy” value is given as 0.17. Besides, in assay [4], the “α3-GABAAR Relative Efficacy” value turned out to be 0.42.
In the same order, the values of `CCCNC(=O)c1c(N)c2cccc(-c3cc(OCc4ccccn4)ccc3F)c2[nH]c1=O` [Example 85, 4-Amino-8-[2-fluoro-5-(2-pyridylmethoxy)phenyl]-2-oxo-N-propyl-1H-quinoline-3-carboxamide] are 0.3 nM, 0.7 nM, 0.32 and 0.42.
The corresponding values for `CCCNC(=O)c1c(N)c2cccc(-c3cc(OCc4c[nH]cn4)ccc3F)c2[nH]c1=O` [Example 124, 8-(5-((1H-Imidazol-4-yl)methoxy)-2-fluorophenyl)-4-amino-2-oxo-N-propyl-1,2-dihydroquinoline-3-carboxamide] are 0.98 nM, 1.55 nM, 0.28 and 0.34.
